Measured values from patent publication US5358951A, “Angiotensin II receptor blocking 2, 3, 6 substituted quinazolinones” (American Cyanamid Company, priority 1993, dated 1994).

Tested on: vasopressor response of angiotensin II
Test: AII Challenge: antagonism of angiotensin II vasopressor response
Assay type: in vivo
Details: for inhibition in vivo at 1 mg/kg / inhibition in vivo at 5 mg/kg: Rattus norvegicus; for inhibition in vivo at 1 mg/kg: iv; for inhibition in vivo at 5 mg/kg: po
In short: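 Percent antagonism is based on the systolic blood pressure rise (mmHg) to i.v. angiotensin II at 0.05 and 0.1 ug/kg. Each rat's own predose response was taken as 100%. Challenges were repeated from 30 to 300 min after i.v., i.p. or oral compound in cannulated conscious male SHR, 16-20 weeks old.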

`CCCCc1nc2ccc([C@@]3(C)C[C@@H]4CCC(C)(C)N4O3)cc2c(=O)n1Cc1ccc(-c2ccccc2-c2nnn[nH]2)cc1` (relative stereo) [Example 66, Cis-2-Butyl-6-(hexahydro-2,6,6-trimethylpyrrolo[1,2-b]isoxazol-2-yl)-3-[[2'-(1H-tetrazol-5-yl)[1,1'-biphenyl]-4-yl]methyl]-4(3H)-quinazolinone] was tested, and the “Response Average Change” value (1 mg/kg i.v., AII 0.05 mcg/kg IV, 30 min post dose) was 2.5 mmHg, the “Response Average Change” value (1 mg/kg i.v., AII 0.05 mcg/kg IV, 60 min post dose) was 0 mmHg and the “Response Average Change” value (1 mg/kg i.v., AII 0.05 mcg/kg IV, 90 min post dose) was 9 mmHg. For the same compound, the “Response Average Change” value (1 mg/kg i.v., AII 0.05 mcg/kg IV, 120 min post dose) was 11.5 mmHg, the “Response Average Change” value (1 mg/kg i.v., AII 0.05 mcg/kg IV, 180 min post dose) was 15 mmHg and the “Response Average Change” value (1 mg/kg i.v., AII 0.05 mcg/kg IV, 240 min post dose) was 12.5 mmHg. For the same compound, the “Response Average Change” value (1 mg/kg i.v., AII 0.05 mcg/kg IV, 300 min post dose) was 20 mmHg, the “Response Average Change” value (1 mg/kg i.v., AII 0.1 mcg/kg IV, 30 min post dose) was 5 mmHg and the “Response Average Change” value (1 mg/kg i.v., AII 0.1 mcg/kg IV, 60 min post dose) was 2.5 mmHg. For the same compound, the “Response Average Change” value (1 mg/kg i.v., AII 0.1 mcg/kg IV, 90 min post dose) was 7.5 mmHg, the “Response Average Change” value (1 mg/kg i.v., AII 0.1 mcg/kg IV, 120 min post dose) was 7.5 mmHg and the “Response Average Change” value (1 mg/kg i.v., AII 0.1 mcg/kg IV, 180 min post dose) was 14 mmHg. The “Response Average Change” value (1 mg/kg i.v., AII 0.1 mcg/kg IV, 240 min post dose) was 14 mmHg, the “Response Average Change” value (1 mg/kg i.v., AII 0.1 mcg/kg IV, 300 min post dose) was 17.5 mmHg and the “Response Average Change” value (5 mg/kg P.O., AII 0.05 mcg/kg IV, 30 min post dose) was 10 mmHg. The “Response Average Change” value (5 mg/kg P.O., AII 0.05 mcg/kg IV, 60 min post dose) was 7.5 mmHg, the “Response Average Change” value (5 mg/kg P.O., AII 0.05 mcg/kg IV, 90 min post dose) was 3 mmHg and the “Response Average Change” value (5 mg/kg P.O., AII 0.05 mcg/kg IV, 120 min post dose) was 7.5 mmHg. For the same compound, the “Response Average Change” value (5 mg/kg P.O., AII 0.05 mcg/kg IV, 180 min post dose) was 5 mmHg, the “Response Average Change” value (5 mg/kg P.O., AII 0.05 mcg/kg IV, 240 min post dose) was 5 mmHg and the “Response Average Change” value (5 mg/kg P.O., AII 0.05 mcg/kg IV, 300 min post dose) was 10 mmHg. For the same compound, the “Response Average Change” value (5 mg/kg P.O., AII 0.1 mcg/kg IV, 30 min post dose) was 21 mmHg, the “Response Average Change” value (5 mg/kg P.O., AII 0.1 mcg/kg IV, 60 min post dose) was 17.5 mmHg and the “Response Average Change” value (5 mg/kg P.O., AII 0.1 mcg/kg IV, 90 min post dose) was 2.5 mmHg. For the same compound, the “Response Average Change” value (5 mg/kg P.O., AII 0.1 mcg/kg IV, 120 min post dose) was 7.5 mmHg, the “Response Average Change” value (5 mg/kg P.O., AII 0.1 mcg/kg IV, 180 min post dose) was 12.5 mmHg and the “Response Average Change” value (5 mg/kg P.O., AII 0.1 mcg/kg IV, 240 min post dose) was 10 mmHg. For the same compound, the “Response Average Change” value (5 mg/kg P.O., AII 0.1 mcg/kg IV, 300 min post dose) was 10 mmHg, the inhibition in vivo at 1 mg/kg (0.5 h, 1 mg/kg i.v., AII 0.05 mcg/kg IV, 30 min post dose) was 93% and the inhibition in vivo at 1 mg/kg (0.5 h, 1 mg/kg i.v., AII 0.1 mcg/kg IV, 30 min post dose) was 89%. For the same compound, the inhibition in vivo at 1 mg/kg (1 h, 1 mg/kg i.v., AII 0.05 mcg/kg IV, 60 min post dose) was 100%, the inhibition in vivo at 1 mg/kg (1 h, 1 mg/kg i.v., AII 0.1 mcg/kg IV, 60 min post dose) was 94% and the inhibition in vivo at 1 mg/kg (2 h, 1 mg/kg i.v., AII 0.05 mcg/kg IV, 120 min post dose) was 69%. For the same compound, the inhibition in vivo at 1 mg/kg (2 h, 1 mg/kg i.v., AII 0.1 mcg/kg IV, 120 min post dose) was 83%, the inhibition in vivo at 1 mg/kg (3 h, 1 mg/kg i.v., AII 0.05 mcg/kg IV, 180 min post dose) was 60% and the inhibition in vivo at 1 mg/kg (3 h, 1 mg/kg i.v., AII 0.1 mcg/kg IV, 180 min post dose) was 68%. The inhibition in vivo at 1 mg/kg (4 h, 1 mg/kg i.v., AII 0.05 mcg/kg IV, 240 min post dose) was 67%, the inhibition in vivo at 1 mg/kg (4 h, 1 mg/kg i.v., AII 0.1 mcg/kg IV, 240 min post dose) was 68% and the inhibition in vivo at 1 mg/kg (5 h, 1 mg/kg i.v., AII 0.05 mcg/kg IV, 300 min post dose) was 47%. It also gave an inhibition in vivo at 1 mg/kg (5 h, 1 mg/kg i.v., AII 0.1 mcg/kg IV, 300 min post dose) of 60%, an inhibition in vivo at 1 mg/kg ([…], 1 mg/kg i.v., AII 0.05 mcg/kg IV, 90 min post dose) of 76% and an inhibition in vivo at 1 mg/kg ([…], 1 mg/kg i.v., AII 0.1 mcg/kg IV, 90 min post dose) of 83%. It also gave an inhibition in vivo at 5 mg/kg (0.5 h, 5 mg/kg P.O., AII 0.05 mcg/kg IV, 30 min post dose) of 77%, an inhibition in vivo at 5 mg/kg (0.5 h, 5 mg/kg P.O., AII 0.1 mcg/kg IV, 30 min post dose) of 52% and an inhibition in vivo at 5 mg/kg (1 h, 5 mg/kg P.O., AII 0.05 mcg/kg IV, 60 min post dose) of 83%. The inhibition in vivo at 5 mg/kg (1 h, 5 mg/kg P.O., AII 0.1 mcg/kg IV, 60 min post dose) was 60%, the inhibition in vivo at 5 mg/kg (2 h, 5 mg/kg P.O., AII 0.05 mcg/kg IV, 120 min post dose) was 83% and the inhibition in vivo at 5 mg/kg (2 h, 5 mg/kg P.O., AII 0.1 mcg/kg IV, 120 min post dose) was 83%. The inhibition in vivo at 5 mg/kg (3 h, 5 mg/kg P.O., AII 0.05 mcg/kg IV, 180 min post dose) was 89%, the inhibition in vivo at 5 mg/kg (3 h, 5 mg/kg P.O., AII 0.1 mcg/kg IV, 180 min post dose) was 72% and the inhibition in vivo at 5 mg/kg (4 h, 5 mg/kg P.O., AII 0.05 mcg/kg IV, 240 min post dose) was 89%. It also gave an inhibition in vivo at 5 mg/kg (4 h, 5 mg/kg P.O., AII 0.1 mcg/kg IV, 240 min post dose) of 77%, an inhibition in vivo at 5 mg/kg (5 h, 5 mg/kg P.O., AII 0.05 mcg/kg IV, 300 min post dose) of 77% and an inhibition in vivo at 5 mg/kg (5 h, 5 mg/kg P.O., AII 0.1 mcg/kg IV, 300 min post dose) of 77%. It also gave an inhibition in vivo at 5 mg/kg ([…], 5 mg/kg P.O., AII 0.05 mcg/kg IV, 90 min post dose) of 93% and an inhibition in vivo at 5 mg/kg ([…], 5 mg/kg P.O., AII 0.1 mcg/kg IV, 90 min post dose) of 94%.
